Paper PMC11647907 (Journal of Medicinal Chemistry, 2024)

Key:
ClpP [1] = biological target: T1, ClpP (Homo sapiens, UniProt Q16740); assay: In vitro enzyme assay: ClpP peptidase activity with AC-WLA-AMC; type: biochemical; details: for EC50: EC50 (ClpP proteolytic activity), mean ± SD, n = 3
ClpP in MOLM13 cells = ClpP in MOLM13 cells (Homo sapiens, UniProt Q16740); assay: Cellular thermal shift assay; type: cell-based; details: 10 μM, 6 h, vs control group
[2] = tested on: SDHB and NDUFA12 in MOLM13 cells; assay: Western blotting of respiratory chain proteins, MOLM13; type: cell-based; details: 36 h
HL60 cells [3] = assay: Mitochondrial membrane potential; type: cell-based; details: HL60, 10 nM, 48 h, vs DMSO group
HL60 cells [4] = assay: Growth inhibition assay; type: cell-based
MOLM13 cells [5] = assay: Cell cycle analysis; type: cell-based; details: MOLM13, 24 h
MOLM13 cells [6] = assay: MOLM13-disseminated leukemia model, survival; type: in vivo, NSG mice; details: 10 mg/kg, p.o, qd, 18 days
[7] = Liver microsomal stability, human; type: in vitro ADME; details: human liver microsomes
HL60 cells [8] = assay: Mitochondrial ROS; type: cell-based; details: HL60, 5 nM, 38 h, vs DMSO group
MOLM13 cells [9] = assay: Mitochondrial ROS; type: cell-based; details: MOLM13, 38 h
ClpP [10] = biological target: T1, ClpP; assay: Biolayer interferometry; type: binding
HL60 cells [11] = assay: Cell cycle analysis; type: cell-based; details: 24 h
HL60 cells [12] = assay: HL60-disseminated leukemia model, survival; type: in vivo, NSG mice
PK study, oral 50 mg/kg = type: in vivo, ICR mice
[13] = Liver microsomal stability, rat; type: in vitro ADME; details: rat liver microsomes
[14] = tested on: SDHB and NDUFA12 in HL60 cells; assay: Western blotting of respiratory chain proteins, HL60; type: cell-based; details: 36 h
ClpP in HL60 cells = ClpP in HL60 cells (Homo sapiens, UniProt Q16740); assay: Cellular thermal shift assay; type: cell-based; details: 10 μM, 6 h, vs control group
MOLM13 cells [15] = assay: Mitochondrial membrane potential; type: cell-based; details: MOLM13, 10 nM, 48 h, vs DMSO group
[16] = Liver microsomal stability, mice; type: in vitro ADME
[17] = female, ICR, mouse, plasma, po, 50 mg/kg

T1 sequence (Q16740 57-277): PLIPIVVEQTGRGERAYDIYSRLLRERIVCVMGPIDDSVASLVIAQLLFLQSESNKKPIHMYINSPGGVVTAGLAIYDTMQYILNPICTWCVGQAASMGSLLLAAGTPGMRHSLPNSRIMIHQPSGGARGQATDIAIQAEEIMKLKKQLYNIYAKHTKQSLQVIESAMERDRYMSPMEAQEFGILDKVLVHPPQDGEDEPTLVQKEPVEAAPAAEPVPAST
Chain of ClpP in MOLM13 cells (Q16740 57-277): as above
Chain of ClpP in HL60 cells (Q16740 57-277): as above

C[C@@H]1CC2=C(CN1Cc1cccc(C#N)c1)C(=O)N(Cc1ccc(Br)cc1)C1=NCCN12 [CLPP-1071, (R)-3-((4-(4-Bromobenzyl)-8-methyl-5-oxo-1,2,4,5,8,9-hexahydroimidazo[1,2-a]pyrido[3,4-e]pyrimidin-7(6H)-yl)methyl)benzonitrile]
EC50 (ClpP [1]): 23.5 nM | ClpP agonistic activity, fold stronger than ONC201 (ClpP [1]; vs ONC201): 107.1 fold | thermal stability of ClpP (CETSA) (ClpP in MOLM13 cells): effectively stabilized ClpP protein at higher temperatures | SDHB and NDUFA12 protein levels ([2]; MOLM13, 1 nM): decreased | SDHB and NDUFA12 protein levels ([2]; MOLM13, 10 nM): mostly disappeared | mitochondrial membrane potential (MMP) (HL60 cells [3]): significantly decreased MMP | IC50 (HL60 cells [4]; read-out: HL60 IC50, HL60 cells, 72 h, mean ± SD, n = 3, listed as 52a): 4.61 ± 0.21 nM | inhibition of proliferation of HL60 cells, fold stronger than ONC201 (HL60 cells [4]; vs ONC201): 169.2 fold | percentage of cells arrested in G1 (MOLM13 cells [5]; higher dose (dose not given)): 73% | percentage of cells arrested in G1 (MOLM13 cells [5]; lower dose (dose not given)): 65% | survival of female NSG mice (MOLM13 cells [6]): extended the survival | Clapp [7]: 296 mL/min/kg | Clh [7]: 19.3 mL/min/kg | Eh (%) [7]: 93.5% | half-life [7]: 13.7 min | ROS accumulation (HL60 cells [8]): pronounced elevation in ROS accumulation | ROS levels (MOLM13 cells [9]): significant increase in the ROS levels | Kd (ClpP [10]): 26.9 nM | percentage of cells arrested in G1 (HL60 cells [11]; HL60, 10 nM): 50% | percentage of cells arrested in G1 (HL60 cells [11]; HL60, 100 nM): 60% | survival of female NSG mice (HL60 cells [12]; HL60 model, 5 and 10 mg/kg, p.o, qd, 19 days): dose-dependently extended the survival | survival periods in mice (HL60 cells [12]; disseminated model, 5 mg/kg, stronger effects compared to 10 mg/kg ONC212): significantly prolonged survival periods | AUC0–∞, times higher than that of ONC212 (PK study, oral 50 mg/kg; PO 50 mg/kg, mice): approximately 1.5 times | AUC(0-inf) (PK study, oral 50 mg/kg; [17]): 9840 ± 990 ng·h/mL | AUC(0-t) (PK study, oral 50 mg/kg; [17]): 9010 ± 1320 ng·h/mL | Cmax (PK study, oral 50 mg/kg; [17]): 3420 ± 570 ng/mL | MRT (PK study, oral 50 mg/kg; [17]): 157 ± 24.6 min | Tmax (PK study, oral 50 mg/kg; [17]): 30 ± 25.8 min | half-life (PK study, oral 50 mg/kg; [17]): 87 ± 19.8 min | Clapp [13]: 906 mL/min/kg | Clh [13]: 52.0 mL/min/kg | Eh (%) [13]: 94.3% | half-life [13]: 6.89 min | SDHB and NDUFA12 protein levels ([14]; HL60, 1 nM): decreased | SDHB and NDUFA12 protein levels ([14]; HL60, 10 nM): mostly disappeared | thermal stability of ClpP (CETSA) (ClpP in HL60 cells): effectively stabilized ClpP protein at higher temperatures | mitochondrial membrane potential (MMP) (MOLM13 cells [15]): significantly decreased MMP

C[C@]12CC[C@H]3[C@@H](CCC4=CC(=O)CC[C@@]43C)[C@@H]1CC[C@@H]2O [testosterone, reference compound]
Clapp [7]: 467 mL/min/kg | Clh [7]: 19.8 mL/min/kg | Eh (%) [7]: 95.8% | Clapp ([16]; mice liver microsomes): 8634 mL/min/kg | Clh ([16]; mice liver microsomes): 54.8 mL/min/kg | Eh (%) ([16]; mice liver microsomes): 99.4% | half-life ([16]; mouse, liver microsomes): 0.723 min | Clapp [13]: 8634 mL/min/kg | Clh [13]: 54.8 mL/min/kg | Eh (%) [13]: 99.4% | half-life [13]: 0.723 min

CC1CN(Cc2ccccc2)CC2=C1N1CCN=C1N(Cc1ccc(C(F)(F)F)cc1)C2=O (stereo not shown) [compound 4]
EC50 (ClpP [1]): 1410 ± 20.5 nM

CC(c1ccc(C(F)(F)F)cc1)N1C(=O)C2=C(CCN(Cc3ccccc3)C2)N2CCN=C21 (stereo not shown) [compound 3]
EC50 (ClpP [1]): 2659 ± 11.7 nM

CC(c1ccccc1)N1CCC2=C(C1)C(=O)N(Cc1ccc(C(F)(F)F)cc1)C1=NCCN12 (stereo not shown) [compound 2]
EC50 (ClpP [1]): 193 ± 18.9 nM

CC1(C)CN(Cc2ccccc2)CC2=C1N1CCN=C1N(Cc1ccc(C(F)(F)F)cc1)C2=O [compound 5]
EC50 (ClpP [1]): 1650 ± 84.5 nM
